Assay results from patent US12448369B2 (Edgewise Therapeutics, Inc., priority 2023, dated 2025).
Marks after values point to notes of the source that are not given here. Blank lines part the entries; values can stand above or below the molecule they belong to.

Tests used:
[1] = test system: Rabbit Psoas myofibrils (skeletal myosin ATPase); assay: Myofibril ATPase assay, rabbit psoas (skeletal) myofibrils; assay type: biochemical; settings: rabbit psoas myofibrils
Description: (§1) Example 1. Myofibril ATPase Assay
(§2) Myofibril ATPase assays are known in the art to be useful in evaluating small molecules for the treatment of HCM and other cardiac indications. Myosin ATPase activity is assessed by using a coupled reaction system, in which ADP generated by the myosin ATPase function is coupled to the disappearance of NADH through the pyruvate kinase/lactate dehydrogenase (PK-LDH) system. ATPase activity produces ADP, which is used as a substrate for PK to produce pyruvate and regenerate ATP. The pyruvate is then used as a substrate by LDH to oxidize NADH to NAD+. The rate of the reaction is monitored through the time-dependent disappearance of NADH using absorbance at 340 nm, which, when the couple system is in stoichiometric excess, is directly correlated to the ATPase activity of the myosin. Inhibition of ATPase activity by the assayed compounds is indicated by a reduced rate of NADH loss, relative to vehicle-treated controls, over the experimental time window. Activation of ATPase activity by the assayed compounds is indicated by an increased rate of NADH loss, relative to vehicle-treated controls, over the experimental time window. Rabbit Psoas, Porcine atria, and Porcine ventricle are the primary sources of myofibril material.
(§3) Materials: The following stock solutions and reagents were used in the Myofibril ATPase Assay:
(§4) Stock Solutions of pCa buffer. Combine PIPES, CaCl2, and EGTA solutions with water. Adjust pH to 7.0 and bring final volume to 100 mL.
(§5) Buffer A & Buffer B. Prepare buffers A and B according to the table below.
(§6) Myofibril ATPase Assay Procedure: BSA, ATP, NADH, PEP, and DTT solutions were thawed at room temperature, then transferred to ice. Pellet-frozen myofibrils were transferred with approximately twice the required volume into a sufficiently large tube and capped. Myofibrils were thawed by rolling in a water bath for approximately 15 min at room temperature and cooled on ice. Buffers A and B were prepared by adjusting volumes as necessary for required number of wells and stored on ice. 0.5 μL of the compounds to be assayed were added into wells. 25 μL of Buffer A was dispensed into the wells, followed by 25 μL of Buffer B. The wells were measured for absorbance at 340 nm, using a kinetic protocol in which the wells are read every 1.5-2 min for 75 min. Assay data analysis was performed using a python script that filtered the raw data to retain those points falling between a starting and ending time and between a maximum and minimum absorbance, then used the filtered time-domain 340 nm absorbance data in each well to calculate a slope via linear regression analysis in units of mAU/min. Compound slopes were normalized between 100% and 0% activity, where 100% represented the slope of wells containing only compound vehicle, and fit to a 4-parameter logistic model. In addition to the fit parameters, the EC25% values were calculated, relative to the 100% normalized value. Additionally, the Y125 values were calculated for compounds that increased myosin ATP-ase activity. Fit parameters, calculated effective concentrations, filtered raw data, and calculated slopes were exported, in addition to compound-specific graphs of normalized ATPase activity versus concentration in μM. Each value reported in Table 5, Table 6, and Table 7 is either a Y75 value or a Y125 value. Values without a double cross sign, ‡, are Y75 values, which reflect the concentration required to reduce myosin ATP-ase activity by 25% (e.g., Y-axis activity value is 75% of initial value), relative to myosin ATP-ase activity in the absence of exogenous compound.
Skeletal Myofibril Isolation:
(§7) Myofibrils from various animals and tissue types were acquired from a variety of sources: rabbit psoas muscle was purchased from Pel-Freez Biologicals (Rogers, AR) and porcine cardiac muscle was purchased from Exemplar Genetics. All myofibrils were prepared using a method based upon those described in Herrmann et al. (1993) and summarized here. […]

[2] = target: T1, Porcine ventricle myofibrils (ventricular myosin ATPase) (Sus scrofa, UniProt P79293); assay: Myofibril ATPase assay, porcine ventricle myofibrils; assay type: biochemical, porcine (Yucatan minipigs); settings: porcine ventricle myofibrils
T1 construct: Myofibrils from porcine cardiac muscle was isolated from the left ventricle of Yucatan minipigs; tissue Exemplar Genetics; host or cells: left ventricle of Yucatan minipigs, myofibrils prepared in house
Description: as §1, §2, §3, §4, §5, §6
Cardiac Myofibril Isolation:
Myofibrils from porcine cardiac muscle was isolated from the left ventricle of Yucatan minipigs. Myofibrils were prepared using a method based upon those described in Herrmann et al. (1993) and summarized here. […]

[3] = test system: Porcine atria myofibrils (atrial myosin ATPase); assay: Myofibril ATPase assay, porcine atria myofibrils; assay type: biochemical; settings: porcine atria myofibrils
Description: as §1, §2, §3, §4, §5, §6, §7

[4] = Y75 value (75% activity relative to no compound)
[5] = ‡ Y125 value, not a Y75 value (125% activity relative to no compound)

T1 sequence (P79293 whole entry): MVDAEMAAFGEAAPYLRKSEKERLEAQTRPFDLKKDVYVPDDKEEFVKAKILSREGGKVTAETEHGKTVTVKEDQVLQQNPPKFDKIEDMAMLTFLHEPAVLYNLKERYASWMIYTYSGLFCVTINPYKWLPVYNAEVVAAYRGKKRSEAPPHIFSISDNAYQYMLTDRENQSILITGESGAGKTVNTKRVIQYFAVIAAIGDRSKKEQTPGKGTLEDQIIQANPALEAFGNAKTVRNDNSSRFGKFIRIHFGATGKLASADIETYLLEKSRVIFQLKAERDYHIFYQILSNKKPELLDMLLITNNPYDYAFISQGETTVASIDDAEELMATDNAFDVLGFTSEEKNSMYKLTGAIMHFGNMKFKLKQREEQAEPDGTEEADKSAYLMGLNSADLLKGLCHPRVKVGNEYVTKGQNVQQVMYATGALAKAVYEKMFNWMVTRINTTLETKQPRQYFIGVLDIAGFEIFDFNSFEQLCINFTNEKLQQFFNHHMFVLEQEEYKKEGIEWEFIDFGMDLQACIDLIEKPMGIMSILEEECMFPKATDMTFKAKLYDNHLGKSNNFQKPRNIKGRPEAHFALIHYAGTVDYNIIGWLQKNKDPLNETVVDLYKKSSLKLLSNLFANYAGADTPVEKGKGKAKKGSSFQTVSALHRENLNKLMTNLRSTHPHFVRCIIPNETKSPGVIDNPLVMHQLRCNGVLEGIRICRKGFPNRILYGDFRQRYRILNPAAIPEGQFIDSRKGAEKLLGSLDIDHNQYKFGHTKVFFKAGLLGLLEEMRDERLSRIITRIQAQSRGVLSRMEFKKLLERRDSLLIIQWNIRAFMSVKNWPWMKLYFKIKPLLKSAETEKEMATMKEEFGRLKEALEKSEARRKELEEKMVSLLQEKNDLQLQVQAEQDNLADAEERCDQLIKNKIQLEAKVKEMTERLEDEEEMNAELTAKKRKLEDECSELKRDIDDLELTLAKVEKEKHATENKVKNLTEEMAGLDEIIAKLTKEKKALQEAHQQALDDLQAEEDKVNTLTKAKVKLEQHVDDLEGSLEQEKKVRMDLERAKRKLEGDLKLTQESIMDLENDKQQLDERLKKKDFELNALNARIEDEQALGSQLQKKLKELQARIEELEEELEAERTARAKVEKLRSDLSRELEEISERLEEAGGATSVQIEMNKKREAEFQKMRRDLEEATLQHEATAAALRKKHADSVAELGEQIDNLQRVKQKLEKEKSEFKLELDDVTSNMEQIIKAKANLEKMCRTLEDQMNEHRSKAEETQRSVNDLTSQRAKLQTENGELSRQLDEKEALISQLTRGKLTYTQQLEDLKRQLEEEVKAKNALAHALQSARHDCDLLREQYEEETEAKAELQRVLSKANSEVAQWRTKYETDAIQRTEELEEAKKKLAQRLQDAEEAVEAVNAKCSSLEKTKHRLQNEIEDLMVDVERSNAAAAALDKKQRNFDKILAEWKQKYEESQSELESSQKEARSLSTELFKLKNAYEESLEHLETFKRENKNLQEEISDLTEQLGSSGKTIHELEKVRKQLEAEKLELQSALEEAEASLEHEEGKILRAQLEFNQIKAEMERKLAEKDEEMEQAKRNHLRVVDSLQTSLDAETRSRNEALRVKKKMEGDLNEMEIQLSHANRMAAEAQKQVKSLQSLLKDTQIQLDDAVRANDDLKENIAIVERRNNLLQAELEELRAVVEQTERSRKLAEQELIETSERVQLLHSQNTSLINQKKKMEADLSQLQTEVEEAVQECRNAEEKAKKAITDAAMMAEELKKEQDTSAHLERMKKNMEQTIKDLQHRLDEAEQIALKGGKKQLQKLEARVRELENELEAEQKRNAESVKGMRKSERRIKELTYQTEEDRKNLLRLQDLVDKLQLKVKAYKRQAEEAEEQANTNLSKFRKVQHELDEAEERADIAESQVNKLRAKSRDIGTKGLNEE

Structure (SMILES): Cc1c(CC(=O)N[C@@H](C)c2ccc(F)cc2F)c(=O)[nH]c2ccc(F)c(C3CC3)c12 [compound 101]
Skeletal EC25 ([1]; Y75 value (no ‡ mark)): 0.23 µM
Ventricular EC25 ([2]; Y75 value (no ‡ mark)): 0.11 µM
Atrial EC25 ([3]; Y75 value (no ‡ mark)): 0.04 µM

Structure (SMILES): C[C@@H](NC(=O)Cc1cc2cc(F)c(F)cc2[nH]c1=O)c1cnc(C#N)cn1 [compound 1098]
Skeletal EC25 ([1]; Y75 value (no ‡ mark)): 17.72 µM
Ventricular EC25 ([2]; Y75 value (no ‡ mark)): 17.06 µM
Atrial EC25 ([3]; Y75 value (no ‡ mark)): 7.06 µM

Structure (SMILES): Cc1ccncc1[C@H](C)NC(=O)Cc1c(C)c2c(C)c(F)ccc2[nH]c1=O [compound 1047]
Skeletal EC25 ([1]; Y75 value (no ‡ mark)): 100 µM
Ventricular EC25 ([2]; Y75 value (no ‡ mark)): 1.13 µM
Atrial EC25 ([3]; Y75 value (no ‡ mark)): 100.00 µM

Structure (SMILES): C[C@H](NC(=O)Cc1cc2c(Cl)nccc2[nH]c1=O)c1ccc(F)cc1F [compound 439]
Skeletal EC25 ([1]; Y75 value): 0.10 µM
Ventricular EC25 ([2]; Y75 value): 0.47 µM
Atrial EC25 [3, 4]: 0.06 µM

Structure (SMILES): Cc1c(CC(=O)N[C@@H](C)c2ncc(C#N)cn2)c(=O)[nH]c2ccc(C#N)cc12 (single isomer, unassigned) [compound 2028]
Skeletal EC25 [1, 5]: 73.42‡ μM
Ventricular EC25 [2, 5]: 100.00‡ μM
Atrial EC25 ([3]; Y75 value (no ‡ mark)): 100.00 µM

Structure (SMILES): C[C@H](NC(=O)Cc1cc2c(C(F)(F)F)nccc2[nH]c1=O)c1ccc(F)cc1F [compound 435]
Skeletal EC25 ([1]; Y75 value): 0.38 µM
Ventricular EC25 ([2]; Y75 value): 19.10 µM
Atrial EC25 [3, 4]: 32.52 µM

Structure (SMILES): Cc1c(CC(=O)N[C@@H](C)c2ccc(C#N)nn2)c(=O)[nH]c2cc(F)c(F)cc12 [compound 1043]
Skeletal EC25 ([1]; Y75 value (no ‡ mark)): 0.41 µM
Ventricular EC25 ([2]; Y75 value (no ‡ mark)): 3.5 µM
Atrial EC25 ([3]; Y75 value (no ‡ mark)): 1.28 µM

Structure (SMILES): Cc1c(CC(=O)N[C@H](C)c2ncc(C#N)cn2)c(=O)[nH]c2ccc(F)c(C#N)c12 (single isomer, unassigned) [compound 2015]
Skeletal EC25 ([1]; Y75 value (no ‡ mark)): 0.15 µM
Ventricular EC25 ([2]; Y75 value (no ‡ mark)): 1.45 µM
Atrial EC25 ([3]; Y75 value (no ‡ mark)): 0.49 µM

Structure (SMILES): COc1ccc([C@@H](C)NC(=O)Cc2c(C)c3c(C)nccc3[nH]c2=O)cc1 (single isomer, unassigned) [compound 286]
Skeletal EC25 ([1]; Y75 value): 8.58 µM
Ventricular EC25 ([2]; Y75 value): 100.00 µM
Atrial EC25 [3, 4]: 45.61 µM

Structure (SMILES): C[C@H](NC(=O)[C@@H](C)c1cc2c(F)nccc2[nH]c1=O)c1ccc(F)cc1F (single isomer, unassigned) [compound 367]
Skeletal EC25 ([1]; Y75 value): 0.29 µM
Ventricular EC25 ([2]; Y75 value): 36.08 µM
Atrial EC25 [3, 4]: 2.23 µM

Structure (SMILES): Cc1c(C2(C(=O)N[C@H](C)c3ncc(C#N)cc3F)CC2)c(=O)[nH]c2ccc(F)c(C#N)c12 (single isomer, unassigned) [compound 2523]
Skeletal EC25 [1, 5]: 100.00‡ μM
Ventricular EC25 ([2]; Y75 value (no ‡ mark)): 0.74 µM
Atrial EC25 ([3]; Y75 value (no ‡ mark)): 0.19 µM

Structure (SMILES): Cc1c(CC(=O)N[C@@H](C)c2ccc(F)cc2F)c(=O)[nH]c2cnnc(O)c12 [compound 240]
Skeletal EC25 ([1]; Y75 value): 100.00 µM
Ventricular EC25 ([2]; Y75 value): 100.00 µM
Atrial EC25 [3, 4]: 100.00 µM

Structure (SMILES): C[C@@H](NC(=O)Cc1cc2cc(F)c(F)cc2[nH]c1=O)c1cnc(C#N)nc1 [compound 1074]
Skeletal EC25 ([1]; Y75 value (no ‡ mark)): 100.00 µM
Ventricular EC25 ([2]; Y75 value (no ‡ mark)): 100.00 µM
Atrial EC25 ([3]; Y75 value (no ‡ mark)): 100.00 µM

Structure (SMILES): C[C@H](NC(=O)[C@H](C)c1cc2c(C3CC3)nccc2[nH]c1=O)c1ccc(F)cc1F (single isomer, unassigned) [compound 3506]
Skeletal EC25 (Y125 value, marked ‡) ([1]; Y125 value, not a Y75 value): 108.50‡ μM
Ventricular EC25 ([2]; Y75 value): 100.00 µM

Results, then the molecule that gave them:

Skeletal EC25 ([1]; Y75 value): 100.00 µM
Ventricular EC25 ([2]; Y75 value): 100.00 µM
Atrial EC25 [3, 4]: 65.72 µM
Structure (SMILES): Cc1ccc2[nH]c(=O)c(CC(=O)N[C@H](C)c3ncc(C#N)cc3F)cc2n1 [compound 462]

Skeletal EC25 ([1]; Y75 value): 34.09 µM
Ventricular EC25 ([2]; Y75 value): 100.00 µM
Atrial EC25 [3, 4]: 100.00 µM
Structure (SMILES): Cc1nccc2[nH]c(=O)c(CC(=O)N[C@H](C)c3ccccc3O)c(C)c12 (single isomer, unassigned) [compound 320]

Skeletal EC25 ([1]; Y75 value (no ‡ mark)): 0.02 µM
Ventricular EC25 ([2]; Y75 value (no ‡ mark)): 0.10 µM
Atrial EC25 ([3]; Y75 value (no ‡ mark)): 0.06 µM
Structure (SMILES): Cc1cc(C#N)ncc1[C@@H](C)NC(=O)Cc1c(C)c2c(C)c(F)ccc2[nH]c1=O [compound 1044]

Skeletal EC25 ([1]; Y75 value): 100.00 µM
Ventricular EC25 ([2]; Y75 value): 100.00 µM
Atrial EC25 [3, 4]: 100.00 µM
Structure (SMILES): Cc1c(CC(=O)N[C@@H](C)c2ccc(C#N)cn2)c(=O)[nH]c2ccc(OC(F)(F)F)nc12 [compound 450]

Skeletal EC25 ([1]; Y75 value (no ‡ mark)): 0.12 µM
Ventricular EC25 ([2]; Y75 value (no ‡ mark)): 0.39 µM
Atrial EC25 ([3]; Y75 value (no ‡ mark)): 0.09 µM
Structure (SMILES): Cc1c(C2(C(=O)N[C@@H](C)c3ncc(C#N)cc3F)CC2)c(=O)[nH]c2ccc(F)cc12 (single isomer, unassigned) [compound 2597]

Skeletal EC25 ([1]; Y75 value): 0.14 µM
Ventricular EC25 ([2]; Y75 value): 7.16 µM
Atrial EC25 [3, 4]: 0.12 µM
Structure (SMILES): Cc1c(CC(=O)N[C@@H](CO)c2ccc(C#N)cc2F)c(=O)[nH]c2ccc(C(F)(F)F)nc12 [compound 219]

Ventricular EC25 ([2]; Y75 value (no ‡ mark)): 0.20 µM
Atrial EC25 ([3]; Y75 value (no ‡ mark)): 0.09 µM
Structure (SMILES): Cc1c(C(F)(F)C(=O)N[C@H]2COc3cc(C#N)cc(F)c32)c(=O)[nH]c2ccc(F)cc12 (single isomer, unassigned) [compound 2554]

Skeletal EC25 ([1]; Y75 value (no ‡ mark)): 100.00 µM
Ventricular EC25 ([2]; Y75 value (no ‡ mark)): 100.00 µM
Atrial EC25 ([3]; Y75 value (no ‡ mark)): 97.50 µM
Structure (SMILES): Cc1c(C2(C(=O)N[C@H](C)c3nccc(C#N)n3)CC2)c(=O)[nH]c2ccc(F)cc12 (single isomer, unassigned) [compound 4841]

Skeletal EC25 ([1]; Y75 value (no ‡ mark)): 0.82 µM
Ventricular EC25 ([2]; Y75 value (no ‡ mark)): 1.39 µM
Structure (SMILES): Cc1cc(F)cnc1[C@@H](C)NC(=O)C(F)(F)c1c(C)c2cc(F)ccc2[nH]c1=O (single isomer, unassigned) [compound 4807]

Ventricular EC25 ([2]; Y75 value (no ‡ mark)): 0.10 µM
Atrial EC25 ([3]; Y75 value (no ‡ mark)): 0.05 µM
Structure (SMILES): Cc1c(Cl)ccc2[nH]c(=O)c(CC(=O)N[C@@H](C)c3ncc(C#N)cc3F)c(C)c12 (single isomer, unassigned) [compound 2046]

Skeletal EC25 ([1]; Y75 value): 100.00 µM
Ventricular EC25 ([2]; Y75 value): 100.00 µM
Structure (SMILES): C[C@H](NC(=O)Cc1cc2c(O)nccc2[nH]c1=O)c1ccc(F)cc1F [compound 3013]

Skeletal EC25 ([1]; Y75 value (no ‡ mark)): 100.00 µM
Ventricular EC25 ([2]; Y75 value (no ‡ mark)): 100.00 µM
Structure (SMILES): Cc1cc(F)cnc1[C@H](C)NC(=O)C(F)(F)c1c(C)c2cc(F)ccc2[nH]c1=O (single isomer, unassigned) [compound 4808]
